# Laboratory results taken from patent US20260116920A1, “HUMAN TRANSFERRIN RECEPTOR BINDING PEPTIDE” (PEPTIDREAM INC., priority 2021, published 2026).
# Positions of bridges follow the written chain, without caps; N, C: chain ends. Non-standard residues stand in square brackets, D forms with d. Residues, ends and D or L forms follow the SMILES beside them. *: point of attachment. Trp(1-CH2COOH) = N[C@@H](Cc1cn(CC(=O)O)c2ccccc12)C(=O)O; BCN(endo) = O=C(OC[C@@H]1[C@@H]2CCC#CCC[C@@H]21)*; Phe(3-COOH) = N[C@@H](Cc1cccc(C(=O)O)c1)C(=O)O; NMePhe(3-Cl) = CN[C@@H](Cc1cccc(Cl)c1)C(=O)O; 3Pal(6-NH2) = Nc1ccc(C[C@H](N)C(=O)O)cn1; NMeY = CN[C@@H](Cc1ccc(O)cc1)C(=O)O; 3Pal = N[C@@H](Cc1cccnc1)C(=O)O; PEG4 = NCCOCCOCCOCCOCCC(=O)O; Carboxymethyl = O=C(O)C*
# Target: T1, human transferrin receptor (hTfR) (Homo sapiens, UniProt P02786)
# T1 construct: made in house
# T1 sequence (P02786 89-760 limits assumed): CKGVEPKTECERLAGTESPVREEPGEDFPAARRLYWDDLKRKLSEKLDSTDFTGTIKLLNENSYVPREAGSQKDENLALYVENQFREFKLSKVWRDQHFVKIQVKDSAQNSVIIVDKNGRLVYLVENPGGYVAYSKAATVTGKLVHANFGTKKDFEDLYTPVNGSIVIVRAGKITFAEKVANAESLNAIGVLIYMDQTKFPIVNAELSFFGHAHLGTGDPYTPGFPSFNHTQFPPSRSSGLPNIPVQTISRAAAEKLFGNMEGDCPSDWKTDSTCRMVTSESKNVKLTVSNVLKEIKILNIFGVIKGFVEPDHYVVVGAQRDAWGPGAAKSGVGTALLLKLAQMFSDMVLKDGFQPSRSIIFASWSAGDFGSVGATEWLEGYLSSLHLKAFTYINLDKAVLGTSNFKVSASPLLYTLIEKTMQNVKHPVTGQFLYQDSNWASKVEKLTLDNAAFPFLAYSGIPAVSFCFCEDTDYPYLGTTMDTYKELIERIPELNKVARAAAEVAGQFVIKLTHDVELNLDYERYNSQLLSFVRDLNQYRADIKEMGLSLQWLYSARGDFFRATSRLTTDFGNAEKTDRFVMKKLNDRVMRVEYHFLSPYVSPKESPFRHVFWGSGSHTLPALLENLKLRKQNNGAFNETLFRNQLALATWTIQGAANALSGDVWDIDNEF
# Experiment: Evaluation of molecular interaction between transferrin receptor (hTfR) and peptide using surface plasmon resonance (SPR)
# Format: binding
# Settings: KD class for binding to hTfR by SPR; peptide with the linker shown in the same line; 'low signal indicates no activity'; read-out: SPR
# Outline: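 Binding kinetics of peptides to immobilized recombinant human TfR dimer were measured by SPR at 5–100 nM in a single-cycle format, with KD obtained from curve fitting.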
row,Kd [nM],SMILES
1,< 1,CC[C@H](C)[C@@H]1NC(=O)[C@H](Cc2ccc(OCC(=O)O)cc2)NC(=O)[C@H](Cc2ccc(O)cc2)NC(=O)[C@H](CC(N)=O)NC(=O)[C@H](Cc2cn(CC(=O)O)c3ccccc23)NC(=O)[C@H](C(C)C)NC(=O)[C@H](Cc2cccc(Cl)c2)N(C)C(=O)[C@H](C(C)C)NC(=O)[C@H](C)NC(=O)CSC[C@@H](C(=O)NCC(=O)N[C@H](CO)C(=O)N[C@H](CO)C(=O)N[C@H](CO)C(=O)N[C@H](CO)C(=O)N[C@H](CO)C(=O)N[C@@H](CCCCNC(=O)OC[C@@H]2[C@@H]3CCC#CCC[C@@H]32)C(N)=O)NC(=O)[C@H](Cc2ccc(O)cc2)N(C)C(=O)[C@H](Cc2ccccc2)NC(=O)[C@H](CCCNC(=N)N)NC(=O)[C@H](CCCNC(=N)N)NC(=O)[C@H]([C@@H](C)CC)NC1=O [894_3198] ({CH2CO}-AV[NMePhe(3-Cl)]V[Trp(1-CH2COOH)]NYY(Carboxymethyl)IIRRF[NMeY]CG[dS][dS][dS][dS][dS]K(BCN(endo))-NH2; thioether N-15)
2,< 1,CC[C@H](C)[C@@H]1NC(=O)[C@H](Cc2ccc(OCC(=O)O)cc2)NC(=O)[C@H](Cc2ccc(O)cc2)NC(=O)[C@H](CC(N)=O)NC(=O)[C@H](Cc2cn(CC(=O)O)c3ccccc23)NC(=O)[C@H](C(C)C)NC(=O)[C@H](Cc2cccc(Cl)c2)N(C)C(=O)[C@H](C(C)C)NC(=O)[C@H](C)NC(=O)CSC[C@@H](C(=O)NCC(=O)N[C@@H](CCCCNC(=O)OC[C@@H]2[C@@H]3CCC#CCC[C@@H]32)C(N)=O)NC(=O)[C@H](Cc2ccc(O)cc2)N(C)C(=O)[C@H](Cc2ccccc2)NC(=O)[C@H](CCCNC(=N)N)NC(=O)[C@H](CCC(=O)NCCOCCOCCOCCOCCOCCOCCOCCOC)NC(=O)[C@H]([C@@H](C)CC)NC1=O [894_3199]
3,< 1,CC[C@H](C)[C@@H]1NC(=O)[C@H](Cc2ccc(O)cc2)NC(=O)[C@H](Cc2ccc(O)cc2)NC(=O)[C@H](CC(N)=O)NC(=O)[C@H](Cc2c[nH]c3ccccc23)N(C)C(=O)[C@H](C(C)C)NC(=O)[C@H](Cc2ccccc2)N(C)C(=O)[C@H](C(C)C)NC(=O)[C@H](C)NC(=O)CSC[C@@H](C(=O)NCC(=O)N[C@H](CO)C(=O)N[C@H](CO)C(=O)N[C@H](CO)C(=O)N[C@H](CO)C(=O)N[C@H](CO)C(=O)N[C@@H](CCCCN=[N+]=[N-])C(N)=O)NC(=O)[C@H](Cc2ccc(O)cc2)N(C)C(=O)[C@H](Cc2ccc(O)cc2)NC(=O)[C@H](CCCNC(=N)N)NC(=O)[C@H](CCCCN)NC(=O)[C@H]([C@@H](C)CC)NC1=O [894_3200]
4,1 to 100,CC[C@H](C)[C@@H]1NC(=O)[C@H](Cc2cccnc2)NC(=O)[C@H](Cc2ccc(N)nc2)NC(=O)[C@H](CC(N)=O)NC(=O)[C@H](Cc2c[nH]c3ccccc23)NC(=O)[C@H](C(C)C)NC(=O)[C@H](Cc2cccc(Cl)c2)N(C)C(=O)[C@H](C(C)C)NC(=O)[C@H](C)NC(=O)CSC[C@@H](C(=O)NCCOCCOCCOCCOCCC(N)=O)NC(=O)[C@H](Cc2ccc(O)cc2)N(C)C(=O)[C@H](Cc2cccc(C(=O)O)c2)NC(=O)[C@H](CCCNC(=N)N)NC(=O)[C@H](CCCNC(=N)N)NC(=O)[C@H]([C@@H](C)CC)NC1=O [SEQ ID No. 198] ({CH2CO}-AV[NMePhe(3-Cl)]VWN[3Pal(6-NH2)][3Pal]IIRR[Phe(3-COOH)][NMeY]C[PEG4]-NH2; thioether N-15)

# Same assay, conditions: surface plasmon resonance, binding to hTfR; KD class symbol; read-out: SPR (KD value)
row,Kd [nM],SMILES
1,1 to 100,CC[C@H](C)[C@@H]1NC(=O)[C@H](Cc2ccc(O)cc2)NC(=O)[C@H](Cc2ccc(O)cc2)NC(=O)[C@H](CC(N)=O)NC(=O)[C@H](Cc2c[nH]c3ccccc23)NC(=O)[C@H](C(C)C)NC(=O)[C@H](Cc2ccccc2)N(C)C(=O)[C@H](C(C)C)NC(=O)[C@H](C)NC(=O)CSC[C@@H](C(N)=O)NC(=O)[C@H](Cc2ccc(O)cc2)N(C)C(=O)[C@H](Cc2ccccc2)NC(=O)[C@H](CCCNC(=N)N)NC(=O)[C@H](CCCCNC(=O)CCOCCOCCOCCOC)NC(=O)[C@H]([C@@H](C)CC)NC1=O [compound 1]
2,1 to 100,CC[C@H](C)[C@@H]1NC(=O)[C@H](Cc2ccc(O)cc2)NC(=O)[C@H](Cc2ccc(O)cc2)NC(=O)[C@H](CC(N)=O)NC(=O)[C@H](Cc2c[nH]c3ccccc23)NC(=O)[C@H](C(C)C)NC(=O)[C@H](Cc2ccccc2)N(C)C(=O)[C@H](C(C)C)NC(=O)[C@H](C)NC(=O)CSC[C@@H](C(N)=O)NC(=O)[C@H](Cc2ccc(O)cc2)N(C)C(=O)[C@H](Cc2ccccc2)NC(=O)[C@H](CCCCNC(=O)CCOCCOCCOCCOC)NC(=O)[C@H](CCCNC(=N)N)NC(=O)[C@H]([C@@H](C)CC)NC1=O [compound 2]
3,1 to 100,CC[C@H](C)[C@@H]1NC(=O)[C@H](Cc2ccc(O)cc2)NC(=O)[C@H](Cc2ccc(O)cc2)NC(=O)[C@H](CC(N)=O)NC(=O)[C@H](Cc2c[nH]c3ccc(Cl)cc23)NC(=O)[C@H](C(C)C)NC(=O)[C@H](Cc2ccc(F)cc2)N(C)C(=O)[C@H](C(C)C)NC(=O)[C@H](C)NC(=O)CSC[C@@H](C(N)=O)NC(=O)[C@H](Cc2ccc(O)cc2)N(C)C(=O)[C@H](Cc2ccccc2)NC(=O)[C@H](CCCCNC(=O)CCOCCOCCOCCOC)NC(=O)[C@H](CCCNC(=N)N)N(C)C(=O)[C@H]([C@@H](C)CC)NC1=O [compound 3]
4,1 to 100,CC[C@H](C)[C@@H]1NC(=O)[C@H](Cc2ccc(OC)cc2)NC(=O)[C@H](Cc2ccc(O)cc2)NC(=O)[C@H](CC(N)=O)NC(=O)[C@H](Cc2c[nH]c3ccc(Cl)cc23)NC(=O)[C@H](C(C)C)NC(=O)[C@H](Cc2ccc(F)cc2)N(C)C(=O)[C@H](C(C)C)NC(=O)[C@H](C)NC(=O)CSC[C@@H](C(N)=O)NC(=O)[C@H](Cc2ccc(O)cc2)N(C)C(=O)[C@H](Cc2ccccc2)NC(=O)[C@H](CCCCNC(=O)CCOCCOCCOCCOC)NC(=O)[C@H](CCCNC(=N)N)N(C)C(=O)[C@H]([C@@H](C)CC)NC1=O [compound 4]
5,1 to 100,CC[C@H](C)[C@@H]1NC(=O)[C@H](Cc2ccc(O)cc2)NC(=O)[C@H](Cc2ccc(O)cc2)NC(=O)[C@H](CC(N)=O)NC(=O)[C@H](Cc2c[nH]c3ccccc23)N(C)C(=O)[C@H](C(C)C)NC(=O)[C@H](Cc2ccc(F)cc2)N(C)C(=O)[C@H](C(C)C)NC(=O)[C@H](C)NC(=O)CSC[C@@H](C(N)=O)NC(=O)[C@H](Cc2ccc(O)cc2)N(C)C(=O)[C@H](Cc2ccccc2)NC(=O)[C@@H](CCCNC(=N)N)NC(=O)[C@H](CCCCNC(=O)CCOCCOCCOCCOC)NC(=O)[C@H]([C@@H](C)CC)NC1=O [compound 5]
6,1 to 100,CC[C@H](C)[C@@H]1NC(=O)[C@H](Cc2ccc(OC)cc2)NC(=O)[C@H](Cc2ccc(O)cc2)NC(=O)[C@H](CC(N)=O)NC(=O)[C@H](Cc2c[nH]c3ccccc23)N(C)C(=O)[C@H](C(C)C)NC(=O)[C@H](Cc2ccc(F)cc2)N(C)C(=O)[C@H](C(C)C)NC(=O)[C@H](C)NC(=O)CSC[C@@H](C(N)=O)NC(=O)[C@H](Cc2ccc(O)cc2)N(C)C(=O)[C@H](Cc2ccccc2)NC(=O)[C@@H](CCCNC(=N)N)NC(=O)[C@H](CCCCNC(=O)CCOCCOCCOCCOC)NC(=O)[C@H]([C@@H](C)CC)NC1=O [compound 6]
7,1 to 100,CC[C@H](C)[C@@H]1NC(=O)[C@H](Cc2ccc(O)cc2)NC(=O)[C@H](Cc2ccc(O)cc2)NC(=O)[C@H](CC(N)=O)NC(=O)[C@H](Cc2c[nH]c3ccccc23)N(C)C(=O)[C@H](C(C)C)NC(=O)[C@H](Cc2ccc(F)cc2)N(C)C(=O)[C@H](C(C)C)NC(=O)[C@H](C)NC(=O)CSC[C@@H](C(N)=O)NC(=O)[C@H](Cc2ccc(O)cc2)N(C)C(=O)[C@H](Cc2ccccc2)NC(=O)[C@H](CCCCNC(=O)CCOCCOCCOCCOC)NC(=O)[C@H](CCCNC(=N)N)N(C)C(=O)[C@H]([C@@H](C)CC)NC1=O [compound 7]
8,1 to 100,CC[C@H](C)[C@@H]1NC(=O)[C@H](Cc2ccc(OC)cc2)NC(=O)[C@H](Cc2ccc(O)cc2)NC(=O)[C@H](CC(N)=O)NC(=O)[C@H](Cc2c[nH]c3ccccc23)N(C)C(=O)[C@H](C(C)C)NC(=O)[C@H](Cc2ccc(F)cc2)N(C)C(=O)[C@H](C(C)C)NC(=O)[C@H](C)NC(=O)CSC[C@@H](C(N)=O)NC(=O)[C@H](Cc2ccc(O)cc2)N(C)C(=O)[C@H](Cc2ccccc2)NC(=O)[C@H](CCCCNC(=O)CCOCCOCCOCCOC)NC(=O)[C@H](CCCNC(=N)N)N(C)C(=O)[C@H]([C@@H](C)CC)NC1=O [compound 8]
9,100 to 1000,CC[C@H](C)[C@@H]1NC(=O)[C@H](Cc2ccc(O)cc2)NC(=O)[C@H](Cc2ccc(O)cc2)NC(=O)[C@H](CC(=O)N(C)C)NC(=O)[C@H](Cc2c[nH]c3ccccc23)NC(=O)[C@H](C(C)C)NC(=O)[C@H](Cc2ccccc2)N(C)C(=O)[C@H](C(C)C)NC(=O)[C@H](C)NC(=O)CSC[C@@H](C(N)=O)NC(=O)[C@H](Cc2ccc(O)cc2)N(C)C(=O)[C@H](Cc2ccc(O)cc2)NC(=O)[C@H](CCCNC(=N)N)NC(=O)[C@H](CCCNC(=N)N)NC(=O)[C@H]([C@@H](C)CC)NC1=O [compound 9]
10,1 to 100,CC[C@H](C)[C@@H]1NC(=O)[C@H](Cc2ccc(OC)cc2)NC(=O)[C@H](Cc2ccc(O)cc2)NC(=O)[C@H](CC(N)=O)NC(=O)[C@H](Cc2c[nH]c3ccccc23)N(C)C(=O)[C@H](C(C)C)NC(=O)[C@H](Cc2cccc(Cl)c2)N(C)C(=O)[C@H](C(C)C)NC(=O)[C@H](C)N(C)C(=O)CSC[C@@H](C(=O)NCCOCCOCCOCCOCCC(N)=O)NC(=O)[C@H](Cc2ccc(O)cc2)N(C)C(=O)[C@H](Cc2ccccc2)NC(=O)[C@@H](C)NC(=O)[C@H](CCCNC(=N)N)NC(=O)[C@H]([C@@H](C)CC)NC1=O [compound 10]
11,1 to 100,CC[C@H](C)[C@@H]1NC(=O)[C@H](Cc2ccc(OC)cc2)NC(=O)[C@H](Cc2ccc(O)cc2)NC(=O)[C@H](CC(N)=O)NC(=O)[C@H](Cc2c[nH]c3ccccc23)NC(=O)[C@H](C(C)C)NC(=O)[C@H](Cc2cccc(Cl)c2)N(C)C(=O)[C@H](C(C)C)NC(=O)[C@H](C)NC(=O)CSC[C@@H](C(=O)NCC(=O)N[C@@H](CCCCN=[N+]=[N-])C(N)=O)NC(=O)[C@H](Cc2ccc(O)cc2)N(C)C(=O)[C@H](Cc2ccccc2)NC(=O)[C@H](CCCNC(=N)N)NC(=O)[C@H](CCCNC(=N)N)NC(=O)[C@H]([C@@H](C)CC)NC1=O [compound 11]
